Source: the NIST ThermoML archive (doi:10.1021/je400184t)
Numbers after ± are expanded uncertainties.

Assay: xn = mol fraction of the nth substance listed
Settings: 101 kPa, Liquid, Vibrating tube method

NCCO [2-aminoethan-1-ol] + c1ccncc1
mass density [kg/m3]
Settings	288.15 K	298.15 K	353.15 K
x2 = 0	1019.87 ± 0.2	1012.12 ± 0.2	968.332 ± 0.2
x2 = 0.01329	–	1011.37 ± 0.2	–
x2 = 0.02208	1018.83 ± 0.2	–	966.667 ± 0.2
x2 = 0.03932	1018.01 ± 0.2	1010.09 ± 0.2	965.353 ± 0.2
x2 = 0.06973	1016.73 ± 0.2	1008.71 ± 0.2	963.408 ± 0.2
x2 = 0.1369	1014.03 ± 0.2	1005.81 ± 0.2	959.323 ± 0.2
x2 = 0.2147	1011.06 ± 0.2	1002.59 ± 0.2	954.908 ± 0.2
x2 = 0.3455	1006.12 ± 0.2	997.334 ± 0.2	947.883 ± 0.21
x2 = 0.4414	1002.7 ± 0.2	993.687 ± 0.2	943.004 ± 0.21
x2 = 0.5819	998.105 ± 0.2	988.794 ± 0.2	936.439 ± 0.21
x2 = 0.6767	995.328 ± 0.2	985.804 ± 0.2	932.426 ± 0.21
x2 = 0.79	992.252 ± 0.2	982.566 ± 0.2	928.035 ± 0.21
x2 = 0.878	990.097 ± 0.2	980.237 ± 0.2	924.973 ± 0.21
x2 = 0.96	988.258 ± 0.2	–	922.401 ± 0.21
x2 = 0.9817	–	977.805 ± 0.2	–

Cc1ccccc1 [toluene] + CCCCCCC
298.15 K
Settings	mass density [kg/m3]
x2 = 0	862.222 ± 0.21
x2 = 0.00177	861.767 ± 0.21
x2 = 0.01118	859.353 ± 0.21
x2 = 0.0267	855.387 ± 0.22
x2 = 0.05849	847.515 ± 0.22
x2 = 0.1297	830.567 ± 0.22
x2 = 0.2059	813.369 ± 0.22
x2 = 0.2752	798.596 ± 0.23
x2 = 0.3604	781.402 ± 0.23
x2 = 0.4494	764.554 ± 0.23
x2 = 0.4718	760.485 ± 0.24
x2 = 0.6659	727.559 ± 0.25
x2 = 0.8166	704.661 ± 0.25
x2 = 0.9094	691.588 ± 0.26
x2 = 0.9624	684.471 ± 0.26
x2 = 0.9968	679.955 ± 0.26

CN(CCO)CCO [N-methyldiethanolamine] + c1ccncc1
mass density [kg/m3]
Settings	288.15 K	298.15 K	353.15 K
x2 = 0	1046.36 ± 0.21	1036.81 ± 0.21	994.015 ± 0.2
x2 = 0.01699	–	–	992.733 ± 0.2
x2 = 0.04	–	1034.22 ± 0.21	–
x2 = 0.07502	1041.45 ± 0.21	–	988.525 ± 0.2
x2 = 0.1	–	1030.39 ± 0.2	–
x2 = 0.1844	1034.44 ± 0.2	–	980.64 ± 0.2
x2 = 0.2183	–	1023.03 ± 0.2	–
x2 = 0.3178	1025.81 ± 0.2	–	971.05 ± 0.2
x2 = 0.33	–	1016.1 ± 0.2	–
x2 = 0.4447	1018 ± 0.2	–	961.905 ± 0.2
x2 = 0.5265	–	1004.45 ± 0.2	–
x2 = 0.5708	1010.68 ± 0.2	–	952.805 ± 0.21
x2 = 0.6	–	1000.15 ± 0.2	–
x2 = 0.6945	1003.92 ± 0.2	–	943.917 ± 0.21
x2 = 0.7687	–	990.603 ± 0.2	–
x2 = 0.8095	997.843 ± 0.2	–	935.616 ± 0.21
x2 = 0.8886	993.774 ± 0.2	–	930.006 ± 0.21
x2 = 0.9059	–	983.032 ± 0.2	–
x2 = 0.9582	–	980.414 ± 0.2	–
x2 = 0.9597	990.221 ± 0.2	–	924.867 ± 0.21
